According to patent publication EP0878193A1, “REMEDIES FOR HERPESVIRUS INFECTION CAUSED BY HERPESVIRUS AND PREVENTIVES FOR RECURRENCE OF THE INFECTION BOTH CONTAINING TRITERPENE DERIVATIVES AS THE ACTIVE INGREDIENT” (Showa Shell Sekiyu K.K., priority 1996, dated 1997):
Converted amounts (≈) assume the structure as drawn.

Legend:
[1] = tested on: HSV-1, AP^r1, TK^-, HSV-2; assay: viral growth inhibition activity, plaque forming unit (PFU/mℓ) as index, 24 hours culture; type: cell-based, herpes simplex virus; settings: 5, 10 or 20 µg/mℓ compared with the control (water); also drug-resistant strains AP^r and TK^-; Table 2 is an image
Method: Next, the viral growth inhibition activity was measured in the following manner making use of a plaque forming unit (PFU/mℓ) as an index. That is, each of the above-described viral strains was adsorbed to Vero cells which have been cultured into monolayer in a plastic dish of 60 mm in diameter, and the resulting cells were supplemented with 2% fetal bovine serum-added MEM medium (3 mℓ) and 3-oxo-olean-18-en-28-oic acid solution (1 mℓ) having varied concentration and cultured at 37°C for 24 hours. After 24 hours, the thus infected cells were subjected to three times of freezing-thawing and then to centrifugation (3,000 rpm, 15 minutes), and the resulting supernatant fluid was used as a virus solution to count the number of infectious viruses by the above-described plaque formation test and to calculate the plaque forming unit (PFU/mℓ) based on the counts.

HSV-1 [2] = assay: skin infection of BALB/c mice with HSV-1, scoring of affected parts and survival; type: in vivo
From the text: In order to illustratively confirm the effect of 3-oxo-olean-18-en-28-oic acid (moronic acid) to inhibit growth of viruses after viral infection, skin cell tissues of BALB/c mice were infected with the strain HSV-1 and then the parts affected thereafter were observed and scored. The scores were made based on the average time (days ± standard deviation) until the affected parts reached score 2 (local efflorescence, bulla, erosion) or score 6 (slight shingles) and based on the survival days.

AP^r1 = assay: plaque formation test (antiviral activity, CPE as index) on Vero cells; type: cell-based; settings: Human alphaherpesvirus 1, Vero, read-out: EC50 (µg/mℓ) (average ± standard deviation), 50% plaque formation inhibition concentration, three experiments
From the text: (§1) In order to examine antiviral activity, herpes simplex virus type 1 (strain 7401 H) (referred sometimes to as "HSV-1" hereinafter), TK deficiency herpes simplex virus type 1 (strain B 2006) (referred sometimes to as "TK^-" hereinafter), phosphono acetic acid (referred to as "PAA" hereinafter) resistant herpes simplex virus type 1 (PAA resistant strain derived from 7401 H) (referred sometimes to as "AP^r1" hereinafter) and herpes simplex virus type 2 (strain Ito 1262) (referred sometimes to as "HSV-2" hereinafter) were used as viruses. […]
(§2) That is, the above-described virus solution was diluted to a concentration of 100 plaques/0.2 mℓ, the thus diluted virus solution (0.2 mℓ) was inoculated into Vero cells which have been cultured into monolayer in a plastic dish of 60 mm in diameter, and the mixture was incubated at 37°C for 1 hour to effect adsorption of viruses to the Vero cells. After the adsorption, 2% fetal bovine serum-added MEM medium (5 mℓ) containing each drug solution to be measured having varied drug concentration and 0.8% methyl cellulose was overlaid on the just described virus-adsorbed monolayer Vero cells which were subsequently cultured at 37°C for 2 to 5 days to effect plaque formation. […] The number of plaques was counted under a stereoscopic microscope. […]

Vero cells = assay: cytotoxicity (observation, no method given); settings: at the concentration by which it showed anti-herpesvirus activity
HSV-1 [3] = assay: plaque formation test (antiviral activity, CPE as index) on Vero cells; type: cell-based, herpes simplex virus type 1 (strain 7401 H); settings: Human alphaherpesvirus 1, Vero, 50% plaque formation inhibition concentration; HSV-1 on Vero cells; three experiments; read-out: EC50 (µg/mℓ) (average ± standard deviation)
From the text: as §1, §2

TK^- = assay: as above; type: cell-based, TK deficiency herpes simplex virus type 1 (strain B 2006); settings: Human alphaherpesvirus 1, Vero, read-out: EC50 (µg/mℓ) (average ± standard deviation)
From the text: as §1, §2

[4] = toxicity test in non-infected mice; type: in vivo
Method: Next, in order to examine toxicity of moronic acid, a toxicity test was carried out by administering control (water only) or 1 mg, 5 mg or 10 mg per kg mouse body weight of 3-oxo-olean-18-en-28-oic acid (moronic acid) to mice which have not been infected with viruses. Mice having a weight of 18 to 21 g/animal just before the commencement of the test were used in five animals per group. None of the mice died before completion of the test. 3-Oxo-olean-18-en-28-oic acid (moronic acid) was orally administered every day and three times a day.

[5] = Exp. 3, 1 mg/kg oral three times a day
[6] = Exp. 3, 10 mg/kg oral three times a day
[7] = Exp.1, 1 mg/kg oral three times a day
[8] = Exp.2, 0.2 mg/kg oral three times a day
[9] = Exp.2, 1 mg/kg oral three times a day
[10] = Exp.2, 5 mg/kg oral three times a day
[11] = Exp. 1, 1 mg/kg orally every day, three times a day, non-infected mice, five per group

**Q.** Which results are given for `CC1(C)C=C2[C@H]3CC[C@@H]4[C@@]5(C)CCC(=O)C(C)(C)[C@@H]5CC[C@@]4(C)[C@]3(C)CC[C@@]2(C(=O)O)CC1` [Moronic acid, 3-oxo-olean-18-en-28-oic acid]?
**A.** ratio of plaques formed by each viral strain [1]: decreases; Average time (days ± standard deviation) Score-2 (local efflorescence, bulla, erosion) (HSV-1 [2]; [5]): 3.80 ± 0.63 b days; Average time (days ± standard deviation) Score-6 (slight shingles) (HSV-1 [2]; [5]): 5.60 ± 0.71 days; Average time (days ± standard deviation) Survival (HSV-1 [2]; [5]): 7.70 ± 2.16 days; Average time (days ± standard deviation) Score-2 (local efflorescence, bulla, erosion) (HSV-1 [2]; [6]): 3.70 ± 0.48 b days; Average time (days ± standard deviation) Score-6 (slight shingles) (HSV-1 [2]; [6]): 5.30 ± 0.48 days; Average time (days ± standard deviation) Survival (HSV-1 [2]; [6]): 6.80 ± 0.42 days; Average time (days ± standard deviation) Score-2 (local efflorescence, bulla, erosion) (HSV-1 [2]; [7]): 3.90 ± 0.70 b days; Average time (days ± standard deviation) Score-6 (slight shingles) (HSV-1 [2]; [7]): 5.70 ± 0.68 b days; Average time (days ± standard deviation) Survival (HSV-1 [2]; [7]): 7.30 ± 1.16 b days; Average time (days ± standard deviation) Score-2 (local efflorescence, bulla, erosion) (HSV-1 [2]; [8]): 4.00 ± 0.47 d days; Average time (days ± standard deviation) Score-6 (slight shingles) (HSV-1 [2]; [8]): 5.78 ± 0.97 days; Average time (days ± standard deviation) Survival (HSV-1 [2]; [8]): 6.89 ± 0.33 days; Average time (days ± standard deviation) Score-2 (local efflorescence, bulla, erosion) (HSV-1 [2]; [9]): 3.60 ± 0.70 days; Average time (days ± standard deviation) Score-6 (slight shingles) (HSV-1 [2]; [9]): 5.40 ± 0.52 days; Average time (days ± standard deviation) Survival (HSV-1 [2]; [9]): 7.00 ± 1.49 days; Average time (days ± standard deviation) Score-2 (local efflorescence, bulla, erosion) (HSV-1 [2]; [10]): 3.90 ± 0.74 b days; Average time (days ± standard deviation) Score-6 (slight shingles) (HSV-1 [2]; [10]): 5.40 ± 0.53 days; Average time (days ± standard deviation) Survival (HSV-1 [2]; [10]): 7.10 ± 1.52 days; EC50 (AP^r1): 1.6 ± 0.4 µg/mL (≈ 3.52 µM); cytotoxicity (Vero cells): not observed; EC50 (HSV-1 [3]): 3.9 ± 1.1 µg/mL (≈ 8.58 µM); EC50 (TK^-): 2 ± 0.4 µg/mL (≈ 4.4 µM); Death rate ([4]; Exp. 1, 1 mg/kg orally every day, three times a day, non-infected mice): 0/5; (Average body weight ± standard deviation) Administration period 7 days [4, 11]: 19.8 ± 1.4; (Average body weight ± standard deviation) Administration period 36 days [4, 11]: 22.6 ± 0.8; Death rate ([4]; Exp. 1, 5 mg/kg orally every day, three times a day, non-infected mice): 0/5; Death rate ([4]; Exp. 2, 10 mg/kg orally every day, three times a day, non-infected mice): 0/5; deaths of mice ([4]; even at the maximum concentration of 10 mg/kg, after the lapse of time of 25 days): none of the five mice died; (Average body weight ± standard deviation) Administration period 7 days ([4]; mouse, in vivo, po, 5 mg/kg): 19.9 ± 1.4; (Average body weight ± standard deviation) Administration period 36 days ([4]; mouse, in vivo, po, 5 mg/kg): 21.0 ± 0.8; (Average body weight ± standard deviation) Administration period 7 days ([4]; mouse, in vivo, po, 10 mg/kg): 20.1 ± 1.2; (Average body weight ± standard deviation) Administration period 21 days ([4]; mouse, in vivo, po, 10 mg/kg): 20.4 ± 1.0
